The values below come from patent US7321046B2, “Analogs of dictyostatin, intermediates therefor and methods of synthesis thereof” (University of Pittsburgh, priority 2002, dated 2008).

For orientation: EC50 means the concentration at which the effect is half-maximal. By GI50 is commonly meant the concentration at which growth is held to half of that of the control.

The conditions of data set [1]: ester bond, 2,4,6-trichlorobenzoyl chloride / Et3N / DMAP (Yamaguchi), toluene, 25.0 °C, 12.0 h, 2 steps.
The subject of a further data set is HeLa cells. Put plainly: Multiparameter fluorescence high information content analysis of cellular effects. In kind it is cell-based. Also noted: unit not given here. The settings on record: 24 h treatment; for Minimum detectable cellular change, Nuclear condensation: Hoechst 33342. On the procedure:
HeLa cells were plated on collagen-coated 384-well microtiter plates, allowed to attach, then treated for 24 h with test agents. Test agent concentrations began at 1 μM, and two-fold dilutions were made to levels below 1 nM. After the treatment period, the cells were fixed with formalin and their chromatin stained with Hoechst 33342. Cells were permeabilized and treated with primary antibodies for α-tubulin and phosphohistone H3, and then with fluorophore-labeled secondary antibodies. The three fluorescent channels were then examined on an ArrayScan II, which gives quantitative pixel distribution and density information in each channel on a per cell basis.
HeLa cells growing at log phase were trypsinized and plated in 40 μL at a density of 7,000-8,000 cells per well in calf skin collagen I-coated 384-well plates (Falcon #3962; Fisher Scientific). Cells were exposed to test agents or 0.5% DMSO within 2-8 h of plating. Concentrated DMSO stock solutions of all test agents were diluted into solutions of HBSS medium plus 10% FBS and added to the microplate wells (10 μL per well), using an automated liquid handling system (Biomek® 2000; Beckman-Coulter, Inc.) to provide a serial 2-fold dilution of each test agent. The cells were incubated in the presence of test agents for 24 h. At the end of the incubation, the medium was removed and replaced with HBSS containing 4% formaldehyde and 10 μg/mL Hoechst 33342 (25 μL/well) to fix the cells and fluorescently label their chromatin. After incubation at room temperature for 20-30 min, the solution was removed from each well and replaced with HBSS (100 μL/well). Further reagent additions were made to the microplates using the Biomek 2000. After removing the HBSS from each well, cells were permeabilized for 5 min at room temperature with 0.5% (w/w) Triton X-100 in HBSS (10 μL/well). This step extracts a fraction of the soluble cellular components, including soluble tubulin. The wells were washed with HBSS (100 μL/well), followed by addition of a primary antibody solution containing mouse anti-α-tubulin (1:3000) and rabbit anti-phosphohistone H3 (1:500) in HBSS (10 μL/well). After 1 h at room temperature, the wells were washed with HBSS as above, followed by the addition of a secondary antibody solution containing fluorescein-5-isothiocyanate (FITC)-labeled donkey anti-mouse (1:300) and Cy3-labeled donkey anti-rabbit (1:300) antibodies diluted in HBSS (10 μL/well). After 1 h at room temperature, the wells were washed as above, and HBSS was added (100 μL/well). The plates were placed in an ArrayScan® HCS Reader with the Target Activation BioApplication Software coupled to Cellomics® Store and the vHCS™ Discovery Toolbox (Cellomics, Inc.) to analyze images. Briefly, the instrument was used to scan multiple optical fields, each with multiparameter fluorescence, within a subset of the wells of the 384-well microplate. The BioApplication software produced multiple numerical feature values, such as subcellular object intensities, shapes, and location for each cell within an optical field. […] A nuclear mask was generated from Hoechst 33342-stained nuclei, and object identification thresholds and shape parameters were set such that the algorithm identified over 90% of the nuclei in each field. Objects that touched each other or the edge of the image were excluded from the analysis. Tubulin mass was defined as the average green (FITC) pixel intensity in an area defined by the Hoechst-defined nuclear mask. This cytoplasmic area around the nucleus contains cytoskeletal components is a region from which sensitive measurements of cytoplasmic characteristics can be made.

A further data set concerns T1, Bovine brain tubulin.
T1 construct: Bovine brain tubulin (10 μM) in 0.2 M MSG, 15 min at 20° C
Description: Pelleting assay (tubulin assembly EC50 determination). In kind it is biochemical. The settings on record: tubulin 10 μM in 0.2 M MSG, 15 min at 20° C.; for EC50: concentration required to polymerize 50% of tubulin, read-out: EC50 (μM) ± SD (N). On the procedure: Dictyostatin and representative analogs were evaluated in a quantitative assay for their ability to promote tubulin polymerization. […] When the percent polymer formed was determined in the reactions, a comparison of the activities of all the analogs could be made.
The assay was performed under three different reaction conditions following the procedure reported earlier (Gapud et al., 2004). Reaction condition 1 included 0.2 M monosodium glutamate (MSG), 10 μM tubulin, 5% DMSO and varying concentrations of test agents. Reaction condition 2 included 0.8 M MSG, 400 μM GTP, 10 μM tubulin, 5% DMSO, and varying concentrations of test agents. Reaction condition 3 had 0.6 M MSG, 200 μM GTP, and 10 μM tubulin, and 5% DMSO, and varying concentrations of the test agents. The experimental protocol for all the three reaction conditions was the following. The reaction mixtures were incubated at room temperature (20-22° C.) for 15 min and spun for 10 min at 14,000 rpm in an Eppendorf microtube centrifuge. Aliquots of the supernatants were removed and assayed for protein content by the method of Lowry.

Data set [2] relates to microtubules (tubulin polymer). Description: Radiolabeled ligand binding assays. The settings on record: test agent 4 μM; radiolabel 4.0 μM; 37° C. The method, then: The abilities of test agents to inhibit the binding of radiolabeled forms of the microtubule stabilizers paclitaxel, discodermolide and epothilone B from tubulin polymer were determined.
[^3H]Paclitaxel, [^3H]discodermolide and [^14C]epothilone B solutions were prepared as 125 μM stock solutions in 50% DMSO. Radiolabeled compound (final concentration, 4.0 μM) and test agents at final concentrations noted in the text and tables were mixed in 50 μL of 4:1 (v/v) 0.75 M aqueous MSG/DMSO and warmed to 37° C. Meanwhile, a reaction mixture containing 0.75 M MSG, 2.5 μM tubulin, and 25 μM ddGTP was prepared and incubated at 37° C. for 30 min to form microtubuless. A 200 μL aliquot of the microtubule mixture was added to the drug mixtures, and incubation continued for 30 min at 37° C. Reaction mixtures were centrifuged in an Eppendorf 5417C centrifuge at 14,000 rpm for 20 min at room temperature. Radiolabel in the supernatants (100 μL) was determined by scintillation spectrometry.

Data set [3] deals with 1A9/Ptx22 (Ala364 −> Thr) β-tubulin mutant cells. Description: Antiproliferative assay (GI50, MTS), paclitaxel-resistant clone. The settings on record: for fold-resistance: 1A9/Ptx22 versus parental 1A9; for GI50: read-out: GI50 ± S.D., 1A9/Ptx22 (Ala364 −> Thr), 72 h incubation. In kind it is cell-based, human. The method, then: (§1) Representative analogs were examined for their antiproliferative activities against human ovarian carcinoma 1A9 cells and their paclitaxel-resistant mutants, 1A9/Ptx10 and 1A9/Ptx22.
(§2) The effects of dictyostatin and its analogs on growth inhibition of parental (A549) and paclitaxel-resistant (1A9/Ptx10 and Ptx22) ovarian adenocarcinoma cell lines were evaluated following the antiproliferative assay protocol as described earlier (Minguez et al., 2003; Choy et al., 2003; Lazo et al., 2001). Cells were maintained in RPMI medium with 10% FBS in it, plated in tissue culture plates, and allowed to grow for 48-72 h before transferring them into 96-well plates. Cells were allowed to attach and grow for 48 h in 96-well plates after which they were treated with either control (DMSO) or drug in triplicate/quadruplicate. Cells were incubated with the compounds for 72 h. Cells were treated with MTS reagent before reading the plate in a Dynamax plate reader for determining the cell number. The fifty percent growth inhibition values (GI50 values) were calculated for the compounds against all the three cell lines.

Data set [4] relates to 1A9/Ptx10 (Phe270 −> Val) β-tubulin mutant cells. The data set is described as above. It is filed as cell-based, human. The settings on record: for fold-resistance: 1A9/Ptx10 versus parental 1A9; for GI50: read-out: GI50 ± S.D., 1A9/Ptx10 (Phe270 −> Val), 72 h incubation. On the procedure:
as §1, §2

The subject of data set [5] is human ovarian carcinoma cells (1A9). Description: Antiproliferative assay (GI50, MTS). It is filed as cell-based. To be noted: for antiproliferative potency / GI50 values (in words): Table 1 (1A9 and mutant lines); for GI50: read-out: GI50 ± S.D., 1A9 parental cells, 72 h incubation. The method, then:
as §1
as §2, with “The effects of dictyostatin and its analogs on growth inhibition of parental (A549) and paclitaxel-resistant (1A9/Ptx10 and Ptx22) ovarian adenocarcinoma cell lines were evaluated following the antiproliferative assay protocol as described earlier (Minguez et al., 2003; Choy et al., 2003; Lazo et al., 2001).” left out

Like-named read-outs stand apart in the source and are kept apart here.

In turn, `C=C/C=C\[C@H](C)[C@@H]1OC(=O)/C=C\C=C\[C@@H](C)[C@@H](O[Si](C)(C)C(C)(C)C)C[C@H](O[Si](C)(C)C(C)(C)C)/C=C\[C@H](C)[C@H](O[Si](C)(C)C(C)(C)C)[C@@H](C)C[C@@H](C)CC[C@@H](O[Si](C)(C)C(C)(C)C)[C@@H]1C` came in with a ring closure, yield of all isomers in data set [1] (from C=C/C=C\[C@H](C)[C@H](O)[C@@H](C)[C@@H](CC[C@H](C)C[C@H](C)[C@@H](O[Si](C)(C)C(C)(C)C)[C@@H](C)/C=C\[C@H](C[C@H](O[Si](C)(C)C(C)(C)C)[C@H](C)/C=C/C=C\C(=O)O)O[Si](C)(C)C(C)(C)C)O[Si](C)(C)C(C)(C)C, 1.71 mM) of 78%.

As to `C=C/C=C\[C@H](C)[C@@H]1OC(=O)/C=C\C=C\[C@@H](C)[C@@H](O[Si](C)(C)C(C)(C)C)C[C@H](O[Si](C)(C)C(C)(C)C)/C=C\[C@H](C)[C@H](O[Si](C)(C)C(C)(C)C)[C@@H](C)C[C@@H](C)CC[C@H](O[Si](C)(C)C(C)(C)C)[C@@H]1C`, the ring closure, yield of all isomers in data set [1] (from C=C/C=C\[C@H](C)[C@H](O)[C@@H](C)[C@H](CC[C@H](C)C[C@H](C)[C@@H](O[Si](C)(C)C(C)(C)C)[C@@H](C)/C=C\[C@H](C[C@H](O[Si](C)(C)C(C)(C)C)[C@H](C)/C=C/C=C\C(=O)O)O[Si](C)(C)C(C)(C)C)O[Si](C)(C)C(C)(C)C, 1.74 mM) amounted to 78%.

Take `C=CC=CC(C)C1OC(=O)C=CC=CC(C)C(O)CC(O)C=CC(C)C(O)C(C)CC(C)CCC(O)C1C` [Compound 109, 8(S),10(S),14(R),20(S)-Tetrahydroxy-7(S),13(S),15(R),17(S),21(S)-pentamethyl-22(S)-(1(S)-methyl-penta-2,4-dienyl)oxacyclodocosa-3(E),5(E),11(Z)-trien-2-one]: in the data set with HeLa cells, the “Minimum detectable cellular change, Phosphohistone H3” value is >5000 (4); the “Minimum detectable cellular change, Tubulin polymer intensity” value was >5000 (4); the “Minimum detectable cellular change, Nuclear condensation” value was >5000 (4). In the data set on Bovine brain tubulin, the “% Tubulin polymerized by 50 μM test agent” value is 5 ± 4% and the concentration for a half-maximal effect (EC50) was above 50 µM. Also, the “Percent inhibition of radiolabel from microtubules, [3H]Paclitaxel” value in data set [2] stood at 0 ± 1%. In data set [3], the fold-resistance was 1.2 fold and the GI50 is 30 ± 1 µM. In addition, in data set [4], the fold-resistance is on record as 1 fold and the GI50 was 25 ± 1 µM. Also, in data set [5], the “antiproliferative potency / GI50 values (in words)” value is on record as “mid micromolar GI50 values” and the GI50 came out at 25 ± 2 µM.

`CC(=O)O[C@H]1C(=O)[C@@]2(C)[C@H]([C@H](OC(=O)c3ccccc3)[C@]3(O)C[C@H](OC(=O)[C@H](O)[C@@H](NC(=O)c4ccccc4)c4ccccc4)C(C)=C1C3(C)C)[C@]1(OC(C)=O)CO[C@@H]1C[C@@H]2O` [paclitaxel, reference compound]: in the data set on HeLa cells, the “Minimum detectable cellular change, Phosphohistone H3” value is 17.5 ± 6.8 (4). The “Minimum detectable cellular change, Tubulin polymer intensity” value with HeLa cells was 8.0 ± 2.9 (4). Further, the “Minimum detectable cellular change, Nuclear condensation” value with HeLa cells was 40.2 ± 13.9 (4). For the same compound, the “% Tubulin polymerized by 50 μM test agent” value with Bovine brain tubulin is 89 ± 6%. Besides, the EC50 in the data set on Bovine brain tubulin stood at 25 ± 3 µM. The “Percent inhibition of radiolabel from microtubules, [3H]Discodermolide” value in data set [2] is recorded as 6 ± 5 (3) %. The “Percent inhibition of radiolabel from microtubules, [14C]Epothilone B” value in data set [2] is recorded as 26 ± 1 (3) %. Also, the fold-resistance in data set [3] is reported as 72 fold; in data set [3] (listed as Paclitaxel), around 70 fold; in data set [4], 90 fold; in data set [4] (listed as Paclitaxel), “ca. 90 fold”. Further, the 50% growth inhibitory concentration (GI50) in data set [3] (Homo sapiens, 1A9/ptx-22, 72 h) was 0.051 ± 0.009 µM; in data set [4] (Homo sapiens, 1A9/ptx-10, 72 h) it was 0.064 ± 0.008 µM; in data set [5] (Homo sapiens, Ovarian carcinoma cell, 72 h) it was 0.00071 ± 0.00011 µM. Besides, the “antiproliferative potency / GI50 values (in words)” value in data set [5] was “subnanomolar potency”.
